In general, IC50 refers to the concentration at which inhibition is half-maximal.

Experiment [1] deals with MV-4-11 cells. The experiment in a line: Her2 degradation Method 2: MV-4-11 cell survival, Cell Counting Kit-8 (Table 2: inhibition of Hsp90). Type of experiment: cell-based. As to conditions: Homo sapiens, MV4-11, 72 hours, cell survival by Cell Counting Kit-8, text calls it IC50 for Her2 degradation, read-out: IC50 range of compounds of the invention for inhibition of Hsp90, IC50. The protocol:
MV-4-11 cells (20,000 cells/well) were cultured in 96-well plates and maintained at 37° C. for several hours. The cells were treated with a compound of the invention or 17AAG (a positive control) at various concentrations and incubated at 37° C. for 72 hours. Cell survival was measured with Cell Counting Kit-8 (Dojindo Laboratories, Cat. # CK04).
For orientation: Tetrazolium assays rely on reduction of a dye to a coloured formazan, in cell work by metabolically active cells.

Experiment [2] concerns Her2. The experiment in a line: Degradation of Her2 in BT-474 cells, Method 1 (Western blot). Type of experiment: cell-based, human. As to conditions: 0.5 μM, overnight, positive control. The method, then: Human high-Her2 breast carcinoma BT474 (HTB-20), SK-BR-3 (HTB-30) and MCF-7 breast carcinoma (HTB-22) from American Type Culture Collection, VA, USA were grown in Dulbecco's modified Eagle's medium with 4 mM L-glutamine and antibiotics (100 IU/ml penicillin and 100 μg/ml streptomycine; GibcoBRL). To obtain exponential cell growth, cells were trypsinized, counted and seeded at a cell density of 0.5×10^6 cells/ml regularly, every 3 days. All experiments were performed on day 1 after cell passage.
BT-474 cells are treated with 0.5 μM, 2 μM, or 5 μM of 17AAG (a positive control) or 0.5 μM, 2 μM, or 5 μM of a compound of the invention overnight in DMEM medium. After treatment, each cytoplasmic sample is prepared from 1×10^6 cells by incubation of cell lysis buffer (#9803, Cell Signaling Technology) on ice for 10 minutes. The resulting supernatant used as the cytosol fractions is dissolved with sample buffer for SDS-PAGE and run on a SDS-PAGE gel, blotted onto a nitrocellulose membrane by using semi-dry transfer. Non-specific binding to nitrocellulose is blocked with 5% skim milk in TBS with 0.5% Tween at room temperature for 1 hour, then probed with anti-Her2/ErB2 mAb (rabbit IgG, #2242, Cell Signaling) and anti-Tubulin (T9026, Sigma) as housekeeping control protein. […]
Background: A western blot detects proteins with antibodies after separation by electrophoresis.

`COc1ccc(-n2c(C(N)=O)nnc2-c2cc3c(cc2O)OCCC3)cc1` [Compound 4, 5-(7-hydroxychroman-6-yl)-4-(4-methoxyphenyl)-4H-1,2,4-triazole-3-carboxamide]: the IC50 in experiment [1] is more than 50 µM.
With `COc1ccc(-n2c(C(N)=O)nnc2-c2c(O)ccc3c2CCCC3)cc1` [Compound 6, 5-(2-hydroxy-5,6,7,8-tetrahydronaphthalen-1-yl)-4-(4-methoxyphenyl)-4H-1,2,4-triazole-3-carboxamide], the IC50 in experiment [1] was in the range of 20 to 50 µM.
As to `NC(=O)c1nnc(-c2cc3c(cc2O)OCO3)n1-c1ccc(N2CCOCC2)cc1` [Compound 1, 5-(6-hydroxybenzo[d][1,3]-dioxol-5-yl)-4-(4-morpholinophenyl)-4H-1,2,4-triazole-3-carboxamide], the IC50 in experiment [1] is 20 to 50 µM.
For `COc1ccc(-n2c(C(N)=O)nnc2-c2cc3c(cc2O)CCC3)cc1` [Compound 5, 5-(6-hydroxy-2,3-dihydro-1H-inden-5-yl)-4-(4-methoxyphenyl)-4H-1,2,4-triazole-3-carboxamide], in experiment [1], the 50% inhibitory concentration (IC50) fell in the range of 10 to 20 µM.
On the same count and under the same terms, then `NC(=O)c1nnc(-c2cc3c(cc2O)OCCC3)n1-c1ccc2c(c1)OCO2` [Compound 2, 4-(benzo[d][1,3]dioxol-5-yl)-5-(7-hydroxychroman-6-yl)-4H-1,2,4-triazole-3-carboxamide], with not above 10 µM.
As to `C=CCNC1=C2C[C@@H](C)C[C@H](OC)[C@H](O)[C@@H](C)/C=C(\C)[C@H](OC(N)=O)[C@@H](OC)/C=C\C=C(/C)C(=O)NC(=CC1=O)C2=O` [Compound 17AAG, 17-allylamino-17-demethoxygeldanamycin], the “degradation of Her2” value in experiment [2] is listed as “partial degradation”.
On to `COc1ccc(-n2c(C(N)=O)nnc2-c2c(O)ccc3ccccc23)cc1` [Compound 7, 5-(2-hydroxynaphthalen-1-yl)-4-(4-methoxyphenyl)-4H-1,2,4-triazole-3-carboxamide], for which the IC50 in experiment [1] fell in the range of 20 to 50 µM.
As to `COc1ccc(-n2c(C(N)=O)nnc2-c2cc3c(cc2O)OCC3)cc1` [Compound 3, 5-(6-hydroxy-2,3-dihydrobenzofuran-5-yl)-4-(4-methoxyphenyl)-4H-1,2,4-triazole-3-carboxamide], in experiment [1], the IC50 lay within 20 to 50 µM.
Regarding `COc1ccc(-n2c(C(N)=O)nnc2-c2ccc3c(c2O)CCCC3)cc1` [Compound 8, 5-(1-hydroxy-5,6,7,8-tetrahydronaphthalen-2-yl)-4-(4-methoxyphenyl)-4H-1,2,4-triazole-3-carboxamide], the IC50 in experiment [1] was more than 50 µM.
